Reference: publication PMC6120666 (The EMBO Journal, 2018)

What was measured:
Assay in all cases: Drug affinity chromatography with c-ponatinib and LC-MS/MS (ponatinib interactome)
Format in all cases: binding
[1] = molecular target: T1, proteins of U2OS cell lysate (Homo sapiens, UniProt P06576); conditions: ATP5B, ATP synthase subunit beta, mitochondrial
T1 construct: Proteins enriched by c-ponatinib from U2OS cell lysate; endogenous in cells; host or cells: U2OS cell lysate
Outline: (§1)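 U2OS cell lysate in NP-40 lysis buffer (2 mg protein per pulldown) was incubated with amine-derivatized NHS beads for 2 h at 4 °C. Bound proteins were washed, eluted with 100 mM formic acid, reduced, alkylated and trypsin-digested, then identified by nano-UPLC–MS/MS on Orbitrap instruments with a 60 min gradient.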

[2] = molecular target: T2, proteins of U2OS cell lysate (Homo sapiens, UniProt P09038); conditions: FGF2, Fibroblast growth factor 2
T2 construct: Proteins enriched by c-ponatinib from U2OS cell lysate; endogenous in cells; host or cells: U2OS cell lysate
T2 sequence (P09038 143-288): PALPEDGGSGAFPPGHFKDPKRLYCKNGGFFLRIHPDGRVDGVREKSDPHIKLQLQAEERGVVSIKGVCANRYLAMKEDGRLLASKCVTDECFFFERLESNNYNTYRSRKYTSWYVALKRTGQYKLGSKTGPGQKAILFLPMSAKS
Outline: as §1

[3] = molecular target: T3, proteins of U2OS cell lysate (Homo sapiens, UniProt O75821); conditions: EIF3G, Eukaryotic translation initiation factor 3 subunit G
T3 construct: Proteins enriched by c-ponatinib from U2OS cell lysate; endogenous in cells; host or cells: U2OS cell lysate
Outline: as §1

[4] = molecular target: T4, proteins of U2OS cell lysate (Homo sapiens, UniProt P27708); conditions: CAD, CAD protein
T4 construct: Proteins enriched by c-ponatinib from U2OS cell lysate; endogenous in cells; host or cells: U2OS cell lysate
Outline: as §1

[5] = molecular target: T5, proteins of U2OS cell lysate (Homo sapiens, UniProt P17844); conditions: DDX5, Probable ATP-dependent RNA helicase DDX5
T5 construct: Proteins enriched by c-ponatinib from U2OS cell lysate; endogenous in cells; host or cells: U2OS cell lysate
T5 sequence (P17844 whole entry): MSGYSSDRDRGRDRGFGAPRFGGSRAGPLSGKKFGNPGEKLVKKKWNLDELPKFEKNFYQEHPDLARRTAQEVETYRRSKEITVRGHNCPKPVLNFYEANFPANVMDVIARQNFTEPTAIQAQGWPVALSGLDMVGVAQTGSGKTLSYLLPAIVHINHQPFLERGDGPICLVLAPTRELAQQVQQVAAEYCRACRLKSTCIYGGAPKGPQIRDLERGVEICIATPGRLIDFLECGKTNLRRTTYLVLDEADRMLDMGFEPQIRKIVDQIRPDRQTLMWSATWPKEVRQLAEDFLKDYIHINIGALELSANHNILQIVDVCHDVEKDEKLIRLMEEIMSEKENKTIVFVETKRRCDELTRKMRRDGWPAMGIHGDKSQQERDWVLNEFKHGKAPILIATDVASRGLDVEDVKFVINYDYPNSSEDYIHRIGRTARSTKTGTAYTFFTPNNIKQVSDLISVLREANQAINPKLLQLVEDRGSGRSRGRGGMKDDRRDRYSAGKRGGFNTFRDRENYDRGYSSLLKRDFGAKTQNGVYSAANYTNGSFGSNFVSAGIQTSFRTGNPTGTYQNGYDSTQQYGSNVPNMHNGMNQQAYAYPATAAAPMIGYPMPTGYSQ
Outline: as §1

[6] = molecular target: T6, proteins of U2OS cell lysate (Homo sapiens, UniProt O94921); conditions: CDK14, Cyclin-dependent kinase 14
T6 construct: Proteins enriched by c-ponatinib from U2OS cell lysate; endogenous in cells; host or cells: U2OS cell lysate
T6 sequence (O94921 whole entry): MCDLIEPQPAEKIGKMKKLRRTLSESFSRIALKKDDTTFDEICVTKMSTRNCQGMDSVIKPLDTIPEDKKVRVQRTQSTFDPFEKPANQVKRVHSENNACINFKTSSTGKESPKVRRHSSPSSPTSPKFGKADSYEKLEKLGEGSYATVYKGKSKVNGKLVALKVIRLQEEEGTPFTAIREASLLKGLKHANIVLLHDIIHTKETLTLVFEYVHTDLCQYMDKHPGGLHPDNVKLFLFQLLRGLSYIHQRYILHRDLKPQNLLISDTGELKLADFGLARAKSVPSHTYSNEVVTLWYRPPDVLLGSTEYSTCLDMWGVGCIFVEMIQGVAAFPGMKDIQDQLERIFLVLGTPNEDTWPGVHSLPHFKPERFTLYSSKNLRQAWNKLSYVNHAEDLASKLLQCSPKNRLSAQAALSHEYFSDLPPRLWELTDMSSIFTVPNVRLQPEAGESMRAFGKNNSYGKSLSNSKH
Outline: as §1

[7] = molecular target: T7, proteins of U2OS cell lysate (Homo sapiens, UniProt P27707); conditions: DCK, Deoxycytidine kinase
T7 construct: Proteins enriched by c-ponatinib from U2OS cell lysate; endogenous in cells; host or cells: U2OS cell lysate
T7 sequence (P27707 whole entry): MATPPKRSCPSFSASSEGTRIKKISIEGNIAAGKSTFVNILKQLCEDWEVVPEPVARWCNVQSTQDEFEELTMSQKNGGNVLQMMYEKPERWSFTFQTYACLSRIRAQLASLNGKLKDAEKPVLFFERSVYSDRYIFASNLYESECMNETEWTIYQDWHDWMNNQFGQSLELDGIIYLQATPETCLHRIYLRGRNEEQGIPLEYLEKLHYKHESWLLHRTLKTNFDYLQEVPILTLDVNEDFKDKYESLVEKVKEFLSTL
Outline: as §1

[8] = molecular target: T8, proteins of U2OS cell lysate (Homo sapiens, UniProt A1L0T0); conditions: ILVBL, Acetolactate synthase-like protein
T8 construct: Proteins enriched by c-ponatinib from U2OS cell lysate; endogenous in cells; host or cells: U2OS cell lysate
Outline: as §1

[9] = molecular target: T9, proteins of U2OS cell lysate (Homo sapiens, UniProt O14974); conditions: PPP1R12A, Protein phosphatase 1 regulatory subunit 12A
T9 construct: Proteins enriched by c-ponatinib from U2OS cell lysate; endogenous in cells; host or cells: U2OS cell lysate
Outline: as §1

[10] = molecular target: T10, proteins of U2OS cell lysate (Homo sapiens, UniProt P61981); conditions: YWHAG, 14-3-3 protein gamma
T10 construct: Proteins enriched by c-ponatinib from U2OS cell lysate; endogenous in cells; host or cells: U2OS cell lysate
Outline: as §1

[11] = molecular target: T11, proteins of U2OS cell lysate (Homo sapiens, UniProt Q8N3V7); conditions: SYNPO, Synaptopodin
T11 construct: Proteins enriched by c-ponatinib from U2OS cell lysate; endogenous in cells; host or cells: U2OS cell lysate
T11 sequence (Q8N3V7 whole entry): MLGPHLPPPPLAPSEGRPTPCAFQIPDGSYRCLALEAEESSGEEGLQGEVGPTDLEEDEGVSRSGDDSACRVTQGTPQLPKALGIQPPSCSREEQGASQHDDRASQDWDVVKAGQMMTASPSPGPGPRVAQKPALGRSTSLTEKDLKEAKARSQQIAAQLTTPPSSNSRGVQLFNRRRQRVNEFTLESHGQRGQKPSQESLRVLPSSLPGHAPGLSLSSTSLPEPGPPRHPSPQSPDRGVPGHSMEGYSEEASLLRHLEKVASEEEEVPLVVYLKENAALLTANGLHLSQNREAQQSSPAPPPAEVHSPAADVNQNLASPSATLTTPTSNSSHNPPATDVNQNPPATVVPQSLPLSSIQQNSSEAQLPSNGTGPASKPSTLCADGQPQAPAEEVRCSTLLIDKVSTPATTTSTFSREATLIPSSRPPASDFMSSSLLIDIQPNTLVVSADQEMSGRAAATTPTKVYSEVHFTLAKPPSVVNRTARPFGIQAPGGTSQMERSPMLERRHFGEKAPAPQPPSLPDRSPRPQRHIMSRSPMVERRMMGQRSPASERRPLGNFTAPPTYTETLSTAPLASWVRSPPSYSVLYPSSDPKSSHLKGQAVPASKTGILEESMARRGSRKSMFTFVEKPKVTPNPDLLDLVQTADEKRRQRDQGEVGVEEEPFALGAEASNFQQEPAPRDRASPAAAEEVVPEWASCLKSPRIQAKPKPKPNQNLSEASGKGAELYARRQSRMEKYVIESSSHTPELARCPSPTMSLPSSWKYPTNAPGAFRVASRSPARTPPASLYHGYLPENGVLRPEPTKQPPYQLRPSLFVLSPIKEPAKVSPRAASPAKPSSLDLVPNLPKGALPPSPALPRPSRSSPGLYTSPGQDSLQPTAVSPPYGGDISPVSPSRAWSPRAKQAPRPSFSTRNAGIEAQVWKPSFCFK
Outline: as §1

[12] = molecular target: T12, proteins of U2OS cell lysate (Homo sapiens, UniProt O43809); conditions: NUDT21, Cleavage and polyadenylation specificity factor subunit 5
T12 construct: Proteins enriched by c-ponatinib from U2OS cell lysate; endogenous in cells; host or cells: U2OS cell lysate
Outline: as §1

[13] = molecular target: T13, proteins of U2OS cell lysate (Homo sapiens, UniProt Q92616); conditions: GCN1L1, Translational activator GCN1
T13 construct: Proteins enriched by c-ponatinib from U2OS cell lysate; endogenous in cells; host or cells: U2OS cell lysate
Outline: as §1

[14] = molecular target: T14, proteins of U2OS cell lysate (Homo sapiens, UniProt P62820); conditions: RAB1A;RAB1B, Ras-related protein Rab-1A
T14 construct: Proteins enriched by c-ponatinib from U2OS cell lysate; endogenous in cells; host or cells: U2OS cell lysate
Outline: as §1

[15] = molecular target: T15, proteins of U2OS cell lysate (Homo sapiens, UniProt P27816); conditions: MAP4, Microtubule-associated protein 4
T15 construct: Proteins enriched by c-ponatinib from U2OS cell lysate; endogenous in cells; host or cells: U2OS cell lysate
Outline: as §1

[16] = molecular target: T16, proteins of U2OS cell lysate (Homo sapiens, UniProt P49207); conditions: RPL34, 60S ribosomal protein L34
T16 construct: Proteins enriched by c-ponatinib from U2OS cell lysate; endogenous in cells; host or cells: U2OS cell lysate
Outline: as §1

[17] = molecular target: T17, proteins of U2OS cell lysate (Homo sapiens, UniProt Q9Y2D5); conditions: AKAP2, A-kinase anchor protein 2
T17 construct: Proteins enriched by c-ponatinib from U2OS cell lysate; endogenous in cells; host or cells: U2OS cell lysate
T17 sequence (Q9Y2D5 whole entry): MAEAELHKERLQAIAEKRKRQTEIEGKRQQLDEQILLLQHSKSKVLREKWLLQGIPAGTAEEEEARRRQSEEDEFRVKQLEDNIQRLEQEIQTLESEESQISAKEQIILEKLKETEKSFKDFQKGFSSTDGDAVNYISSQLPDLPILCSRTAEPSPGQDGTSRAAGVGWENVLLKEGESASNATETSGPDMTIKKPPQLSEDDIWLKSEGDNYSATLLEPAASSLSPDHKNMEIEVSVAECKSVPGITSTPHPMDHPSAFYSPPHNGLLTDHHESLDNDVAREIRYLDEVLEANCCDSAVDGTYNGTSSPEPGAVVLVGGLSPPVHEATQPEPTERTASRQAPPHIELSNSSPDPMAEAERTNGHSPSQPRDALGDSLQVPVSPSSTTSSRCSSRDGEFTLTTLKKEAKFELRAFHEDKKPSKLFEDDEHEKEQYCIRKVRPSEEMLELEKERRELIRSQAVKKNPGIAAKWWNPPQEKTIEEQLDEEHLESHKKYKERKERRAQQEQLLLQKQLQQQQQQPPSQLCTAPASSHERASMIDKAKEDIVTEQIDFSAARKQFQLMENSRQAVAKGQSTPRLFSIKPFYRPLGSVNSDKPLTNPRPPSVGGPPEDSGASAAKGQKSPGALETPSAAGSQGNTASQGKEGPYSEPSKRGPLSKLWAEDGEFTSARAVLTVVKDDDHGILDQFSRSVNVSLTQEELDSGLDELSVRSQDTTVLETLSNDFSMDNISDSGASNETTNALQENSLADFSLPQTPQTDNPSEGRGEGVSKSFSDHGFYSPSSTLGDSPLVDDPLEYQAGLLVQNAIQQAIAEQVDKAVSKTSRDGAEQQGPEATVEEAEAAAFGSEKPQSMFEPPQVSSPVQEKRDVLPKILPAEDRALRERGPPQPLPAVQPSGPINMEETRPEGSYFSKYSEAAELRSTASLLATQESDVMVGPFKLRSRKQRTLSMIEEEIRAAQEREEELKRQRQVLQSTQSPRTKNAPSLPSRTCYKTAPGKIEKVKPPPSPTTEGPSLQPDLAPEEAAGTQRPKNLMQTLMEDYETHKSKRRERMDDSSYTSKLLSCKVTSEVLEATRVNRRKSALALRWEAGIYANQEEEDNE
Outline: as §1

[18] = molecular target: T18, proteins of U2OS cell lysate (Homo sapiens, UniProt Q13200); conditions: captured protein PSMD2, Rank 205
T18 construct: Proteins enriched by c-ponatinib from U2OS cell lysate; endogenous in cells; host or cells: U2OS cell lysate
T18 sequence (Q13200 whole entry): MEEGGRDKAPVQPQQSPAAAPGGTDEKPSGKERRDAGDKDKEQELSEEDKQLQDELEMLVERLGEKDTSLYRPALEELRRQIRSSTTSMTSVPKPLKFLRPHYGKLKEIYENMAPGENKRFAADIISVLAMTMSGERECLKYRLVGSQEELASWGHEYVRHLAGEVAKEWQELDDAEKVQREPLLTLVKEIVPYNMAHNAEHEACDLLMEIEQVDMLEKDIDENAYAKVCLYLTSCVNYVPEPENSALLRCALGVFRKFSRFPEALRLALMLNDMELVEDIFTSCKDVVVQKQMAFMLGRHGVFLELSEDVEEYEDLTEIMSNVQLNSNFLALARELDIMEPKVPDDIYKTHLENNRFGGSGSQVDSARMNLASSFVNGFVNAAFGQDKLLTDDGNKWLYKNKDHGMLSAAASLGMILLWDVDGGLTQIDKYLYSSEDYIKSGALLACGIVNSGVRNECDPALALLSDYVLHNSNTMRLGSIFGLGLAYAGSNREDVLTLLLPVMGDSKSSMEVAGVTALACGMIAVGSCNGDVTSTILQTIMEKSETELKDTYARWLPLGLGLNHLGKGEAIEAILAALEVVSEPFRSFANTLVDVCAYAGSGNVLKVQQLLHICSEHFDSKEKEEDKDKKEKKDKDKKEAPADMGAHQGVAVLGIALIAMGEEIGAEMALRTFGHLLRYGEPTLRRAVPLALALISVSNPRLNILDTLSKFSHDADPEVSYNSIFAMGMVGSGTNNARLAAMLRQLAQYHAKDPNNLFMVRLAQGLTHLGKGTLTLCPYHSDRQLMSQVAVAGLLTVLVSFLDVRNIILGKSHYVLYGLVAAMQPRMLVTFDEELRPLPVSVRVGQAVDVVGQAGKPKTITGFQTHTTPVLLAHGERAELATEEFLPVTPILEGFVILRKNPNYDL
Outline: as §1

[19] = molecular target: T19, proteins of U2OS cell lysate (Homo sapiens, UniProt P10606); conditions: captured protein COX5B, Rank 183
T19 construct: Proteins enriched by c-ponatinib from U2OS cell lysate; endogenous in cells; host or cells: U2OS cell lysate
T19 sequence (P10606 32-129): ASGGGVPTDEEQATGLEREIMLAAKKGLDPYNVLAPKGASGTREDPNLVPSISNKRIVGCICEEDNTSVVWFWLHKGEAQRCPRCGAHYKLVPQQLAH
Outline: as §1

T1 sequence (P06576 48-529): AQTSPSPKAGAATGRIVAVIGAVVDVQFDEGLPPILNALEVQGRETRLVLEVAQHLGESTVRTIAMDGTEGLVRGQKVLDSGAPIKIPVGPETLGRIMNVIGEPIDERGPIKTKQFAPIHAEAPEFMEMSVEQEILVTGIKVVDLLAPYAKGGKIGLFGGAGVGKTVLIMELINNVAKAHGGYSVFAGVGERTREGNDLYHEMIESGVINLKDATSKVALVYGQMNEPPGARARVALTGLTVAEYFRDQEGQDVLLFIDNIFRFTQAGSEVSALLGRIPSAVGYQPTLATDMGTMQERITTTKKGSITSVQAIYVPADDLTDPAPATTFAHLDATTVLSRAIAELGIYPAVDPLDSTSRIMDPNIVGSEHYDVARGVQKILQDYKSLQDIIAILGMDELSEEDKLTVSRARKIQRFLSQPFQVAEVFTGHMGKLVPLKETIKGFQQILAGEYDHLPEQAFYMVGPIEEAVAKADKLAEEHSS

What does the source list for `Cc1ccc(C(=O)Nc2ccc(CN3CCN(C)CC3)c(C(F)(F)F)c2)cc1C#Cc1cnc2cccnn12` [PON]?
Average LFQ PON_WT [1]: 26.0565; Average LFQ PON_WT [2]: 20.5832; Average LFQ PON_WT [3]: 21.2492; Average LFQ PON_WT [4]: 21.3466; Average LFQ PON_WT [5]: 21.2715; Average LFQ PON_WT [6]: 25.6287; Average LFQ PON_WT [7]: 29.7769; Average LFQ PON_WT [8]: 23.3851; Average LFQ PON_WT [9]: 20.7589; Average LFQ PON_WT [10]: 23.8341; Average LFQ PON_WT [11]: 23.2218; Average LFQ PON_WT [12]: 20.8271; Average LFQ PON_WT [13]: 23.5357; Average LFQ PON_WT [14]: 23.3468; Average LFQ PON_WT [15]: 23.7532; Average LFQ PON_WT [16]: 21.0301; Average LFQ PON_WT [17]: 19.1683

Which “Average LFQ intensity” value [18] does the source give for `Cc1ccc(C(=O)Nc2ccc(CN3CCN(CCCN)CC3)c(C(F)(F)F)c2)cc1C#Cc1cnc2cccnn12` [c-ponatinib, reference compound] here?
The value was 21.768.

What about the “Average LFQ intensity” value [19] of the same molecule?
The value was 22.1378.
